Results: ChEMBL document CHEMBL1125779, “Synthesis and evaluation of some nitrobenzenesulfonamides containing nitroisopropyl and (ureidooxy)methyl groups as novel hypoxic cell selective cytotoxic agents” (J Med Chem, 1991)

Assay: Partition coefficient was measured in n-octanol at the PH 7.4 buffer
Format: physicochemical
Settings: octanol/water

Partition coefficient	Compound
0.37	CN(CCN)S(=O)(=O)c1ccc(C(C)(C)[N+](=O)[O-])c([N+](=O)[O-])c1
0.28	CNCCN(C)S(=O)(=O)c1ccc(CONC(N)=O)c([N+](=O)[O-])c1
0.4	O=[N+]([O-])c1nccn1CC(O)CN1CCCCC1 (stereo not drawn) [PIMONIDAZOLE]
